# Measured values published in PMC12140054, “Small glycomimetic antagonists of the cytomegalovirus glycoprotein UL141 prevent binding to TRAIL death receptor” (The Journal of Biological Chemistry, 2025).
# Assays:
# [1] = test system: human foreskin fibroblasts HFF-BJ (ATCC CRL-2522 cells); test: MTT cytotoxicity / cell viability assay; type: cell-based; conditions: 0.1 to 50 μM, 72 h
# Source text: Cell viability as visualized by fold change of formazan-positive cells normalized to the untreated control and DMSO. Viability reduced below 40% represents the cytotoxic zone, below the dotted line in each plot. The number of biological replicates is indicated.
# Human foreskin fibroblasts (HFF), a type of primary fibroblast derived from neonatal foreskin tissue, were chosen for this bioassay due to their distinct advantages in studies involving HCMV. For instance, the HHF cells provide a relevant and effective platform due to their unique susceptibility to HCMV infection, ability to mimic human immune responses, and relevance to clinical scenarios. […] HFF cells were incubated with each compound at concentrations ranging from 0.1 to 50 μM and any possible cytotoxic effect was monitored for 72 h. Tested compounds were dissolved in dimethyl sulfoxide (DMSO). […] The cytotoxic effect (CTE) is represented here as the concentration that causes a reduction of more than 40% in the number of viable cells.
# Cells were seeded in a 96-well plate at a density of 1 × 10^4 cells per well for the measurement of cytotoxicity of the compounds (without UVA irradiation). […] Cells after treatment were incubated for […]. Untreated cells were considered negative control, and DMSO-treated cells (at appropriate concentration) were considered vehicle control. The classical MTT assay (3-(4,5-dimethyl thiazolyl-2)-2,5-diphenyltetrazolium bromide) ([68]) was used to measure cellular metabolic activity as an indicator of cell viability, proliferation, and cytotoxicity. Briefly, 0.5 mg/ml MTT solution was dispensed in each well of the 96-well plate and incubated for 4 h. Afterward, the MTT solution was removed and 200 μl of 100% DMSO was added to each well and the plate was placed on a microplate shaker for 5 min to dissolve the formazan granules. The absorbance was measured at 550 nm using a spectrophotometer. DMSO and MTT were purchased from Thermo Fisher Scientific. The darker the solution, the greater the number of viable, metabolically active cells. All experimental compounds were measured using at least 2 to 3 replicates for each and the averaged values from three independent experiments (n = 3) are presented. Cell viability was visualized by fold change of formazan-positive cells normalized to the untreated control and DMSO. Viability reduced below 40% represents the cytotoxic zone. All evaluations were performed using GraphPad Prism 9.5.0 (GraphPad Software, LLC), if other software was not explicitly mentioned.
# UL141 W235A mutant = molecular target: T1, UL141 W235A mutant (Human cytomegalovirus, UniProt Q6RJQ3, W235A); test: SPR binding to UL141 alanine mutant W235A; conditions: W235A (site C), 0 to 25 μM
# T1 construct: extracellular domain of HCMV UL141 (residues 30–300, Gene ID: 3077418); made in house; host or cells: Sf9 (baculovirus)
# T1 sequence (Q6RJQ3 30-300 W235A): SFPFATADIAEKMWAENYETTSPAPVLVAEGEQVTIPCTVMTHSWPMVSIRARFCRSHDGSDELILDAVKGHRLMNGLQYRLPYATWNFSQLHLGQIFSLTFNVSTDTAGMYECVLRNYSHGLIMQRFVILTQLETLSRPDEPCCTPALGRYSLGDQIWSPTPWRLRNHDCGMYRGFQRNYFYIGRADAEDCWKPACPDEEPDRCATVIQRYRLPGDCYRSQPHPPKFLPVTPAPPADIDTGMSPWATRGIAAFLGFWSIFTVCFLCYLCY
# Source text: (§1) Collectively, the findings from molecular modeling, ELISA, and SPR prompted a more detailed investigation into the binding mechanisms, leading us to explore the possibility of distinct binding sites for UL141 in its interaction with glycomimetic compound 18. To further clarify this, we conducted mutational analysis on the surface residues of UL141 to identify specific binding sites involved in this interaction. The following residues were selected for alanine-scanning mutagenesis, followed by SPR analysis to assess their contribution to the binding affinity of UL141 for 18: Asp91, Glu92, Arg82, Arg80, and Asp37 (site A); Tyr148 and Arg146 (site B); and Arg85, Leu163, Glu164, Pro231, Trp235, and Asp232 (site C) (Fig. 9A). The UL141 mutants were generated through single alanine substitutions and recombinantly produced in the BV-Sf9 system following the same protocol as the WT UL141. […] The binding affinities of the remaining mutants were assessed using SPR, as illustrated in Figure 9. […] Binding interactions were monitored over a 300-s period. […]
# (§2) Figure 9 Mutational analysis of UL141 binding sites for antagonist 18. […] An alternative representation of the same SPR data, showing all measured concentration points, is provided in panel (C), with the structure of compound 18 included for reference. […]
# UL141 D232A mutant = molecular target: T2, UL141 D232A mutant (Human cytomegalovirus, UniProt Q6RJQ3, D232A); test: SPR binding to UL141 alanine mutant D232A; conditions: D232A (site C), 0 to 25 μM
# T2 construct: extracellular domain of HCMV UL141 (residues 30–300, Gene ID: 3077418); made in house; host or cells: Sf9 (baculovirus)
# T2 sequence (Q6RJQ3 30-300 D232A): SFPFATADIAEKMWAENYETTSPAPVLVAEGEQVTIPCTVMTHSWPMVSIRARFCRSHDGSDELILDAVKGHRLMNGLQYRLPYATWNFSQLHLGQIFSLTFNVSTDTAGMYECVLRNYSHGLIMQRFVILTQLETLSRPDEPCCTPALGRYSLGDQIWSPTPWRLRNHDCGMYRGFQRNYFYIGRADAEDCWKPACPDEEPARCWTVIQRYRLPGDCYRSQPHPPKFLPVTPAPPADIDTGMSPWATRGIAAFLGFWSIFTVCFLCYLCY
# Source text: as §1, §2
smiles,measurement,setting,value
CCC1C(O)C(O)CN1Cc1ccc(I)cc1 (stereo not drawn) [Compound 18],cytotoxicity (in words),[1],no cytotoxicity was detected
same,binding to UL141 mutant,UL141 W235A mutant,prevented binding
same,binding to UL141 mutant,UL141 D232A mutant,prevented binding
